Assay results as given in publication PMC7326275 (PLoS Pathogens, 2020).
Marks after values point to notes of the source that are not given here.

Legend:
[1] = system: H1N1pdm09 (H275Y) virus (A/Perth/261/2009); design: species or system ferret; AUC (total area under the viral shedding curve, raw data): unit not given beside the values; settings: in vivo
[2] = system: H1N1 (H275Y) virus (A/Mississippi/3/2001 clone); design: species or system ferret; AUC (total area under the viral shedding curve, raw data): unit not given beside the values; settings: in vivo
[3] = system: B (H273Y) virus (B/Perth/265/2015); design: species or system ferret; AUC (total area under the viral shedding curve, raw data): unit not given beside the values; settings: in vivo
[4] = system: B (D197N) virus (B/Singapore/GP702/2015); design: species or system ferret; AUC (total area under the viral shedding curve, raw data): unit not given beside the values; settings: in vivo
H1N1pdm09 (H275Y) virus = system: H1N1pdm09 (H275Y) virus; design: species or system Cynomolgus macaques (Macaca fascicularis); settings: cynomolgus monkey, in vivo
[5] = system: H3N2 (E119V) virus (A/Fukui/45/2004); design: species or system ferret; AUC (total area under the viral shedding curve, raw data): unit not given beside the values; settings: in vivo

Structure (SMILES): CCOC(=O)C1=C[C@@H](OC(CC)CC)[C@H](NC(C)=O)[C@@H](N)C1 [OST, oseltamivir]
- % Ferrets Infected [1]: 100 (4/4) %
- AUC (total area under the viral shedding curve, raw data) [1]: 23.4 ± 4.4
- Activity loss clinical score [1]: 3 (key: ≤20; 21–40; 2: 41–60; 3: >60)
- Duration of Shedding [1]: 6.0 ± 1.4 days
- Nasal inflammation Cell score [1]: 3 (key: <1X10^6; 1 to 2 x10^6; 2.1 to 4 x10^6; 3: >4x10^6)
- Nasal inflammation Protein score [1]: 3 (key: <500; 500–1000; 2: 1001–1500; 3: >1500)
- Peak Viral Titre [1]: 5.2 ± 0.6 Log10 TCID50/ml
- Temperature clinical score [1]: 3 (key: 0: <1; 1.1–1.5; 1.5–2.0; 3: >2.0)
- Total Score (clinical signs) [1]: 15
- Weight loss clinical score [1]: 3 (key: 0: Weight increase or no change; 1–3; 2: 3–6; 3: >6)
- % Ferrets Infected [2]: 100 (4/4) %
- AUC (total area under the viral shedding curve, raw data) [2]: 18.2 ± 4.3
- Activity loss clinical score [2]: 3 (key: ≤20; 21–40; 2: 41–60; 3: >60)
- Duration of Shedding [2]: 5.2 ± 1.25 days
- Nasal inflammation Cell score [2]: 1 (key: <1X10^6; 1 to 2 x10^6; 2.1 to 4 x10^6; 3: >4x10^6)
- Nasal inflammation Protein score [2]: 0 (key: <500; 500–1000; 2: 1001–1500; 3: >1500)
- Peak Viral Titre [2]: 4.6± 0.5 Log10 TCID50/ml
- Temperature clinical score [2]: 2 (key: 0: <1; 1.1–1.5; 1.5–2.0; 3: >2.0)
- Total Score (clinical signs) [2]: 7
- Weight loss clinical score [2]: 1 (key: 0: Weight increase or no change; 1–3; 2: 3–6; 3: >6)
- % Ferrets Infected [3]: 100 (4/4) %
- AUC (total area under the viral shedding curve, raw data) [3]: 13.5 ± 1.0
- Activity loss clinical score [3]: 1 (key: ≤20; 21–40; 2: 41–60; 3: >60)
- Duration of Shedding [3]: 5.2 ± 0.5 days
- Nasal inflammation Cell score [3]: 0 (key: <1X10^6; 1 to 2 x10^6; 2.1 to 4 x10^6; 3: >4x10^6)
- Nasal inflammation Protein score [3]: 0 (key: <500; 500–1000; 2: 1001–1500; 3: >1500)
- Peak Viral Titre [3]: 3.8 ± 0.6 Log10 TCID50/ml
- Temperature clinical score [3]: 0 (key: 0: <1; 1.1–1.5; 1.5–2.0; 3: >2.0)
- Total Score (clinical signs) [3]: 1
- Weight loss clinical score [3]: 0
- % Ferrets Infected [4]: 100 (4/4) %
- AUC (total area under the viral shedding curve, raw data) [4]: 12.6 ± 2.3
- Activity loss clinical score [4]: 1 (key: ≤20; 21–40; 2: 41–60; 3: >60)
- Duration of Shedding [4]: 4.2 ± 1.0 days
- Nasal inflammation Cell score [4]: 0 (key: <1X10^6; 1 to 2 x10^6; 2.1 to 4 x10^6; 3: >4x10^6)
- Nasal inflammation Protein score [4]: 0 (key: <500; 500–1000; 2: 1001–1500; 3: >1500)
- Peak Viral Titre [4]: 4.5 ± 0.5 Log10 TCID50/ml
- Temperature clinical score [4]: 0 (key: 0: <1; 1.1–1.5; 1.5–2.0; 3: >2.0)
- Total Score (clinical signs) [4]: 1
- Weight loss clinical score [4]: 0
- viral titre on the single day with significant difference to placebo [4]: 4.1 ± 0.4 Log10 TCID50/ml
- body weight or temperature, OST- vs placebo-treated animals (H1N1pdm09 (H275Y) virus): no significant differences
- lower viral titre in tracheal lavages of OST dosed macaques on Day 3 (H1N1pdm09 (H275Y) virus): not observed
- viral titres in nasal wash and tracheal lavages, OST vs placebo (H1N1pdm09 (H275Y) virus): not significantly different
- % Ferrets Infected [5]: 62 (5/8) %
- AUC (total area under the viral shedding curve, raw data) [5]: 6.0 ± 7.7
- Activity loss clinical score [5]: 0 (key: ≤20; 21–40; 2: 41–60; 3: >60)
- Duration of Shedding [5]: 3.8 ± 0.5 days
- Nasal inflammation Cell score [5]: 0 (key: <1X10^6; 1 to 2 x10^6; 2.1 to 4 x10^6; 3: >4x10^6)
- Nasal inflammation Protein score [5]: 0 (key: <500; 500–1000; 2: 1001–1500; 3: >1500)
- Peak Viral Titre [5]: 4.8 ± 0.4 Log10 TCID50/ml
- Temperature clinical score [5]: 0 (key: 0: <1; 1.1–1.5; 1.5–2.0; 3: >2.0)
- Total Score (clinical signs) [5]: 0
- Weight loss clinical score [5]: 0
